Reference: paper PMC4527730, “A Pan-GTPase Inhibitor as a Molecular Probe” (PLoS ONE, 2015)
“And” between values parts separate entries of the source, which are not always exact repeats. Identical values can stand only once. Like-named read-outs stand apart in the source and are kept apart here.

Experiments:
U937 FPRΔST cells = assay: PE Annexin V apoptosis assay; format: cell-based; settings: 24 h or 48 h
Experimental: (§1) Cells were plated in a 96-well plate at 2000 cells per well and allowed to incubate overnight. Compound 1 or the same volume of DMSO was added on the second day. Viability was examined after 48 h. Data were collected from at least triplicate samples. Results were reported as viability treated/viability untreated (DMSO control). To evaluate apoptosis, the PE Annexin V Apoptosis Kit I was used. In 6-well plates, H358 cells were seeded at 50% confluence, while U937 FPRΔST cells were at 0.02 x 10^6 /mL. After overnight incubation, the cells were treated with compound 1 or DMSO. At 24 h or 48 h, cells were washed with PBS, and resuspended in 100 uL annexin-V binding buffer. After staining with annexin-V-FITC and 7-AAD, cells were analyzed on an Accuri C6 flow cytometer. At least 7,000 cells were measured per individual sample. The annexin^+AAD^- cells are defined as cells undergoing apoptosis. Data were collected from duplicate samples and the experiments were repeated. Results are given as the ratios of the apoptotic populations between the compound-treated and the DMSO-treated cells.

H358 cells [1] = assay: PE Annexin V apoptosis assay; format: cell-based; settings: 24 h or 48 h
Experimental: as §1

Cdc42 [2] = target: T1, Cdc42 (Homo sapiens, UniProt P60953); assay: Multiplex bead-based flow cytometry dose-response of fluorescent guanine nucleotide binding
Experimental: (§2) Briefly, individual GST-GTPases were separately attached to glutathione microsphere beads that were labeled with varying intensity of red fluorescent dye, and subsequently combined. The buffer contains 30 mM HEPES (pH 7.2), 150 mM KCl, 20 mM NaCl, 0.1% BSA, 1 mM DTT, 1 mM EDTA and 0.1% NP-40. […] To study whether the compounds are slow binders, BODIPY^- FL GTP was added either immediately or 2 h after compound addition. […] The curves were fitted to the sigmoidal dose-response equation using GraphPad Prism. Percent response was calculated as the ratio of (sample MCF–negative control MCF) / (positive control MCF–negative control MCF).

Rab7, Cdc42 and Ras = assay: Association and dissociation time course of BODIPY-FL GTP (real-time flow cytometry); format: binding
Experimental: GTPases were bound to glutathione-coated microsphere beads overnight and unbound GTPases were removed by washing. The association and dissociation of BODIPY^- FL GTP was analyzed with the Accuri C6 flow cytometer in real-time. The initial 30 s set the baseline fluorescence. […] When the fluorescence plateau was reached, GTP at 50 μM was added to induce BODIPY^- FL GTP dissociation. […] All the concentrations given are the final concentrations.

[3] = system: integrin VLA-4 on U937 FPRΔST cells; assay: Integrin activation assay (LDV-FITC binding); format: cell-based; settings: LDV-FITC 4 nM, fMLFF 100 nM
Experimental: The procedure followed the protocols described previously. U937 FPRΔST cells (0.4~0.8 x 10^6 cells/mL) were continuously stirred with a magnetic stir bar at 500 rpm in a test tube. The fluorescence was recorded on a FACScan flow cytometer. The baseline fluorescence of the cells was established for 30 s. Then LDV-FITC at 4 nM was added. After the fluorescence stabilized at ~120 s, the chemotactic ligand fMLFF at 100 nM was added for stimulation. […] All the concentrations given were the final concentrations. The percent inhibition was calculated according to Equation 1 (Supporting Information).

H358 cells [4] = assay: CellTiter-Glo viability assay; format: cell-based; settings: 48 h, compared with U937 FPRΔST control cells
Experimental: as §1

[5] = system: phospho-Erk 1/2 in H358 cells; assay: Western blotting of Erk1/2 phosphorylation downstream of Ras signaling; format: cell-based; settings: 10 μM, 1 h; complete medium or FBS stimulated after starvation
Experimental: H358 lung cancer cells were seeded at 10^6 cells/well in 6–well plates. […] Then cells were stimulated with 10% FBS for 5 min and lysed in 150 μl RIPA buffer. Cell lysates were processed for SDS-PAGE, transferred to PVDF membranes and probed with a monoclonal antibody directed against phospho-Erk 1/2 (from Cell Signaling) and a monoclonal antibody directed against Erk 1/2 (from Cell Signaling) followed by an HRP labeled ECL anti-mouse IgG (from GE Healthcare).

H-Ras = H-Ras (Homo sapiens, UniProt P01112); assay: Multiplex bead-based flow cytometry dose-response of fluorescent guanine nucleotide binding
Experimental: as §2

Cdc42 [6] = target: T1, Cdc42; assay: GTPase and effector interaction assay (PAK-PBD beads), HeLa cell lysates; settings: HeLa cells, 10 μM, 2 h, EGF 10 ng/mL 2 min
Experimental: GST effector chimeras consisting of the minimal GTPase binding domain were p21-activated kinase p21 binding domain (PAK-PBD) for Cdc42, Raf1 Ras-binding domain (Raf1-RBD) for Ras, and Rab-interacting lysosomal protein (RILP) for Rab7 binding measurements.
Superdex peptide beads (13 μm, from GE Healthcare) derivatized with GSH were coated with effector proteins to saturation. […] The effector-coated glutathione beads (20,000 beads/assay) were incubated with 200 μL cell lysate from a single treated well for 1 h at 4°C. […] The bead associated fluorescence representing bound GTPase was quantified on an Accuri C6 flow cytometer.

Rac1 = Rac1 (Homo sapiens, UniProt P63000); assay: Multiplex bead-based flow cytometry dose-response of fluorescent guanine nucleotide binding
Experimental: Briefly, individual GST-GTPases were separately attached to glutathione microsphere beads that were labeled with varying intensity of red fluorescent dye, and subsequently combined. The buffer contains 30 mM HEPES (pH 7.2), 150 mM KCl, 20 mM NaCl, 0.1% BSA, 1 mM DTT, 1 mM EDTA and 0.1% NP-40. For Rho A and Rac1, 1 mM EDTA was replaced with 1 mM MgCl2 to stabilize the protein. […] To study whether the compounds are slow binders, BODIPY^- FL GTP was added either immediately or 2 h after compound addition. […] The curves were fitted to the sigmoidal dose-response equation using GraphPad Prism. Percent response was calculated as the ratio of (sample MCF–negative control MCF) / (positive control MCF–negative control MCF).

[7] = Solubility in PBS and assay media; format: physicochemical
Experimental: page 7: conclusion, the available data support the idea that compound CID1067700 has non-classical competitive character. […] Solubility was measured in phosphate buffered saline (PBS) at room temperature (23 °C). PBS by definition is 137 mM NaCl, 2.7 mM KCl, 10 mM sodium phosphate dibasic, 2 mM potassium phosphate [monobasic and a pH of 7.4. Detection was based on UV absorbance. […] Solubility was also assessed in the each of the four media used in the individual assays. […] Table 1S. […] Stability, depicted as closed circles in the graph, was assessed at room temperature (23 °C) in PBS (no antioxidants or other protectants and DMSO concentration below 0.1%). Stability data is depicted in Fig. S8 showing the loss of compound with time over a 48 h period with a minimum of 6 time points and providing the percent remaining compound at end of the 48 h period. Under these conditions, 77% of 1 remains after 48 hours. The degradation has not been further characterized.

H-Ras, sequence (P01112 whole entry): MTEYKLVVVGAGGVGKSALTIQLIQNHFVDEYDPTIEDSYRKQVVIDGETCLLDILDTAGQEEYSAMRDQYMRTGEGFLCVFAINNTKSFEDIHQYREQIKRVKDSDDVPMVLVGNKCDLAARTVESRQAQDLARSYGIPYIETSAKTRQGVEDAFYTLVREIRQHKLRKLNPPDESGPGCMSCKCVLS
T1 sequence (P60953 whole entry): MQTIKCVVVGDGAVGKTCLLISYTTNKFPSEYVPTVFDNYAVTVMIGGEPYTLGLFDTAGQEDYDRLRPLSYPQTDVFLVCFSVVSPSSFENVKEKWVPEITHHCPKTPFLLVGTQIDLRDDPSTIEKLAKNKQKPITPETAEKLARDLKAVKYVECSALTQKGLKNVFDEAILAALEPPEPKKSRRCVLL

## CC1(C)Cc2c(sc(NC(=S)NC(=O)c3ccccc3)c2C(=O)O)CO1 [Compound 1]
U937 FPRΔST cells
  apoptosis increase: absent
H358 cells [1]
  apoptosis: time-dependent apoptosis increase
Cdc42 [2]; EC50 Cdc42, BODIPY-FL GTP binding, 2 h at 4°C
  EC50: 1.09 ± 1.62 µM
Cdc42 [2]; EC50 Cdc42, concentration dependence on BODIPY-FL GDP
  EC50: 0.42 µM
Cdc42 [2]; EC50 Cdc42_1, with 2 h incubation before BODIPY-FL GTP, Cdc42 purified in house
  EC50: 2.06 ± 0.038 µM
Cdc42 [2]; EC50 Cdc42_1, without incubation before BODIPY-FL GTP, Cdc42 purified in house
  EC50: 2.23 ± 1.47 µM
Cdc42 [2]; EC50 Cdc42_2, with 2 h incubation before BODIPY-FL GTP, Cdc42 from Cytoskeleton
  EC50: 3.71 ± 0.039 µM
Cdc42 [2]; EC50 Cdc42_2, without incubation before BODIPY-FL GTP, Cdc42 from Cytoskeleton
  EC50: 4.46 ± 2.63 µM
Rab7, Cdc42 and Ras; 50 μM overnight, extensive washing
  covalent bond formation with GTPases / reversibility: did not form a covalent bond
Rab7, Cdc42 and Ras; compound 50 μM added at plateau
  dissociation of pre-bound BODIPY-FL GTP: able to induce dissociation
Rab7, Cdc42 and Ras; compound 50 μM, BODIPY-FL GTP 100 nM
  binding of BODIPY-FL GTP in the presence of compound: decreased
[3]
  integrin VLA-4 activation (LDV-FITC binding after fMLFF): caused diminished binding
H358 cells [4]
  viability: decreased the viability of H358 cells more than the U937 FPRΔST cells
[5]
  phosphorylation level of Erk 1/2: decreased
H-Ras; EC50 H-Ras, BODIPY-FL GTP binding, 2 h at 4°C
  EC50: 0.16 ± 0.16 µM
H-Ras; EC50 H-Ras, concentration dependence on BODIPY-FL GDP
  EC50: 0.24 µM
H-Ras; EC50 Ras, with 2 h incubation before BODIPY-FL GTP
  EC50: 0.1 ± 0.0035 µM
H-Ras; EC50 Ras, without incubation before BODIPY-FL GTP
  EC50: 0.13 ± 0.0026 µM
Cdc42 [6]
  level of active Cdc42 after EGF stimulation: below the basal levels
Rac1; EC50 Rac1, BODIPY-FL GTP binding, 2 h at 4°C, 1 mM MgCl2
  EC50: 0.062 ± 0.049 µM
Rac1; EC50 Rac1, concentration dependence on BODIPY-FL GDP
  EC50: 0.099 µM
[7]; Dose Response-buffer (HEPES buffer), 23 °C, aqueous with cosolvent or surfactant or cyclodextrin, 30mM HEPES, pH 7.5, 100mM KCl, 20mM NaCl, 0.01% (v/v) NP-40, read-out: Solubility, Dose Response-buffer
  solubility: > 68.1 µg/mL and > 174 µM
[7]; EGFR degradation assay medium, DMEM/F-12, read-out: Solubility, EGFR degradation assay medium
  solubility: > 116 µg/mL and > 297 µM
[7]; LDV-FITC assay buffer, RPMI 1640 + 10% HI-FBS, read-out: Solubility, LDV-FITC assay buffer
  solubility: > 116 µg/mL and > 297 µM
[7]; phosphate buffered saline (PBS), PBS pH 7.4, 23 °C, read-out: PBS solubility
  solubility: > 116 µg/mL and > 297 µM
